Data as given in PubChem BioAssay (NCI).
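Where inhibition never reached the appropriate level, the endpoint shown equals the highest concentration tested. Otherwise, values were interpolated linearly from a five-concentration, 48-hour dose response in 96-well plates. TGI denotes the concentration required for complete inhibition of growth.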

Experiments:
Experiment in all cases: growth of human tumour cells (NCI), 48 h
[1] = tested on: CAKI-1 renal
[2] = tested on: MOLT-4 leukemia
[3] = tested on: EKVX NSCLC
[4] = tested on: RPMI-8226 leukemia
[5] = tested on: K-562 leukemia
[6] = tested on: 786-0 renal
[7] = tested on: PC-3 prostate
[8] = tested on: UO-31 renal
[9] = tested on: HOP-92 NSCLC
[10] = tested on: SF-268 CNS
[11] = tested on: MDA-N

## Clc1nc(Cl)nc(NC23CC4CC(CC(C4)C2)C3)n1
[1]
  TGI: 21.7 µM
[2]
  TGI: 51.2 µM
[3]
  TGI: 37.4 µM
[4]
  TGI: 38.4 µM
[5]
  TGI: 33.7 µM
[6]
  TGI: 31.2 µM
[7]
  TGI: > 49.6 µM
[8]
  TGI: 23.5 µM
[9]
  TGI: 35.5 µM
[10]
  TGI: 38.2 µM
[11]
  TGI: 35.3 µM

## COc1ncc(C=C(C#N)C#N)c(OC)n1
[1]
  TGI: > 100 µM
[2]
  TGI: > 100 µM
[3]
  TGI: > 100 µM
[4]
  TGI: 86 µM
[5]
  TGI: > 100 µM
[6]
  TGI: 42.4 µM
[7]
  TGI: > 100 µM
[8]
  TGI: 56.8 µM
[9]
  TGI: > 100 µM
[10]
  TGI: > 100 µM
[11]
  TGI: 92.6 µM

## C[C@]12OC[C@H](c3ccccc3)N1C(=O)C1[C@H]2CC12SCCS2 (stereo partly specified)
[1]
  TGI: > 100 µM
[2]
  TGI: > 100 µM
[3]
  TGI: > 100 µM
[4]
  TGI: > 100 µM
[5]
  TGI: > 100 µM
[6]
  TGI: > 100 µM
[7]
  TGI: > 100 µM
[8]
  TGI: > 100 µM
[9]
  TGI: > 100 µM
[10]
  TGI: > 100 µM
[11]
  TGI: > 100 µM

## CC[C@@H]1CC[C@@H]2[C@H](CC[C@]3(C)[C@@H](O)CC[C@@H]23)[C@H]1C(=O)O
[1]
  TGI: > 100 µM
[2]
  TGI: > 100 µM
[3]
  TGI: > 100 µM
[4]
  TGI: > 100 µM
[5]
  TGI: > 100 µM
[6]
  TGI: > 100 µM
[7]
  TGI: > 100 µM
[8]
  TGI: > 100 µM
[9]
  TGI: > 100 µM
[10]
  TGI: > 100 µM
[11]
  TGI: > 100 µM

## Nc1nc(Cl)cc(NCC2(CO)CC(CCc3ccccc3)C2)n1 (stereo unspecified)
[1]
  TGI: > 100 µM
[2]
  TGI: > 100 µM
[3]
  TGI: > 100 µM
[4]
  TGI: > 100 µM
[5]
  TGI: > 100 µM
[6]
  TGI: > 100 µM
[7]
  TGI: > 100 µM
[8]
  TGI: > 100 µM
[9]
  TGI: > 100 µM
[10]
  TGI: > 100 µM
[11]
  TGI: > 100 µM

## CC(=O)C(CN1CCCCC1)C(c1ccccc1)c1c(O)c2ccccc2oc1=O (stereo unspecified)
[1]
  TGI: > 100 µM
[2]
  TGI: > 100 µM
[3]
  TGI: > 100 µM
[4]
  TGI: > 100 µM
[5]
  TGI: > 100 µM
[6]
  TGI: > 100 µM
[7]
  TGI: > 100 µM
[8]
  TGI: > 100 µM
[9]
  TGI: > 100 µM
[10]
  TGI: > 100 µM
[11]
  TGI: > 100 µM

## CC(C)(C)C(=O)C(CC(=O)c1ccccc1)C(=O)C(C)(C)C
[1]
  TGI: > 100 µM
[2]
  TGI: > 100 µM
[3]
  TGI: > 100 µM
[4]
  TGI: > 100 µM
[5]
  TGI: > 100 µM
[6]
  TGI: > 100 µM
[7]
  TGI: > 100 µM
[8]
  TGI: > 100 µM
[9]
  TGI: > 100 µM
[10]
  TGI: > 100 µM
[11]
  TGI: > 100 µM

## CCOC(=O)c1cc2c([N+](=O)[O-])c(NC(C)=O)ccc2s1
[1]
  TGI: > 100 µM
[2]
  TGI: > 100 µM
[3]
  TGI: 98 µM
[4]
  TGI: > 100 µM
[5]
  TGI: > 100 µM
[6]
  TGI: > 100 µM
[7]
  TGI: > 100 µM
[8]
  TGI: > 100 µM
[9]
  TGI: > 100 µM
[10]
  TGI: > 100 µM
[11]
  TGI: > 100 µM

## Cc1cn(C2CC(N)C(CN)O2)c(=O)[nH]c1=O (stereo unspecified)
[1]
  TGI: > 100 µM
[2]
  TGI: > 100 µM
[3]
  TGI: > 100 µM
[4]
  TGI: > 100 µM
[5]
  TGI: > 100 µM
[6]
  TGI: > 100 µM
[7]
  TGI: > 100 µM
[8]
  TGI: > 100 µM
[9]
  TGI: > 100 µM
[10]
  TGI: > 100 µM
[11]
  TGI: > 100 µM

## c1cc(-c2cnc(-c3ccc4c(c3)CCCO4)o2)ccn1
[1]
  TGI: 41.5 µM
[2]
  TGI: 22.2 µM
[3]
  TGI: 40.5 µM
[4]
  TGI: 23.6 µM
[5]
  TGI: 22.8 µM
[6]
  TGI: 53 µM
[7]
  TGI: 24.4 µM
[8]
  TGI: 25.3 µM
[9]
  TGI: 49.4 µM
[10]
  TGI: 33.2 µM
[11]
  TGI: 27.8 µM

## Clc1cc(N/N=C(/c2ccccc2)c2ncccn2)ncn1
[1]
  TGI: 73.4 µM
[2]
  TGI: > 100 µM
[3]
  TGI: 93 µM
[4]
  TGI: > 100 µM
[5]
  TGI: 51.8 µM
[6]
  TGI: 79.3 µM
[7]
  TGI: > 100 µM
[8]
  TGI: 55.8 µM
[9]
  TGI: 36.6 µM
[10]
  TGI: > 100 µM
[11]
  TGI: > 100 µM

## O=c1[nH]cnc2c(C3OC(CO)C(O)C3O)c[nH]c12 (stereo unspecified)
[1]
  TGI: > 100 µM
[2]
  TGI: > 100 µM
[3]
  TGI: > 100 µM
[4]
  TGI: > 100 µM
[5]
  TGI: > 100 µM
[6]
  TGI: > 100 µM
[7]
  TGI: > 100 µM
[8]
  TGI: > 100 µM
[9]
  TGI: > 100 µM
[10]
  TGI: > 100 µM
[11]
  TGI: > 100 µM

## Cc1cc2c(c(C(=O)NCCC(=O)O)c1)Oc1c(cc(C)cc1C(=O)NCCC(=O)O)S2
[1]
  TGI: > 100 µM
[2]
  TGI: > 100 µM
[3]
  TGI: > 100 µM
[4]
  TGI: > 100 µM
[5]
  TGI: > 100 µM
[6]
  TGI: > 100 µM
[7]
  TGI: > 100 µM
[9]
  TGI: > 100 µM
[10]
  TGI: > 100 µM
[11]
  TGI: > 100 µM

## COc1ccc(N2C(=O)C3c4[nH]c5ccc([N+](=O)[O-])cc5c4C4CCC(C(C)(C)C)CC4C3C2=O)cc1 (stereo unspecified)
[1]
  TGI: > 100 µM
[2]
  TGI: > 100 µM
[3]
  TGI: > 100 µM
[4]
  TGI: 89.5 µM
[5]
  TGI: 7.33 µM
[6]
  TGI: 38 µM
[7]
  TGI: > 100 µM
[8]
  TGI: 51.6 µM
[9]
  TGI: 45.7 µM
[10]
  TGI: > 100 µM
[11]
  TGI: > 100 µM

## COC(=O)C1=C(C(=O)OC)C2OC1C1C2C2(C)C(C)=C(C)C1(C)S2=O (stereo unspecified)
[1]
  TGI: 27 µM
[2]
  TGI: > 100 µM
[3]
  TGI: 27.6 µM
[4]
  TGI: 31 µM
[5]
  TGI: > 100 µM
[6]
  TGI: 20.2 µM
[7]
  TGI: 45.7 µM
[8]
  TGI: 17.6 µM
[9]
  TGI: 32.7 µM
[10]
  TGI: 28.9 µM
[11]
  TGI: > 50.3 µM

## CCCCN(CC)c1nc(C)nc2c1c(C)c(C)n2-c1c(C)cc(C)cc1C
[1]
  TGI: 30.2 µM
[2]
  TGI: 30.1 µM
[3]
  TGI: 27.5 µM
[4]
  TGI: 30.1 µM
[5]
  TGI: 29.8 µM
[6]
  TGI: 30.5 µM
[7]
  TGI: 26.6 µM
[8]
  TGI: 28.9 µM
[9]
  TGI: 21.5 µM
[10]
  TGI: 31.8 µM
[11]
  TGI: 38.6 µM

## CC(=O)OCC1OC(N2C(=O)/C(=C\c3ccc(Cl)cc3)C(N)=Nc3ccccc32)C(OC(C)=O)C(OC(C)=O)C1OC(C)=O (stereo unspecified)
[1]
  TGI: > 100 µM
[2]
  TGI: 27 µM
[3]
  TGI: > 100 µM
[4]
  TGI: 13.8 µM
[5]
  TGI: 33.1 µM
[6]
  TGI: 43.6 µM
[7]
  TGI: 59.8 µM
[8]
  TGI: 58.8 µM
[9]
  TGI: 45.2 µM
[10]
  TGI: 42 µM
[11]
  TGI: 37.9 µM
